# Laboratory results: patent US11622991B2, “Protocol for treatment of lupus nephritis” (Aurinia Pharmaceuticals Inc., priority 2017, dated 2023)
# Tested on: lupus nephritis
# Assay: Predictability of week 48 partial remission from early reduction in UPCR (Tables 4-8)
# Type: in vivo, human
# Method: In the study reported in Example 1, the predictability of outcomes based on markers at early time points were determined.
# This is important because it is undesirable to subject a patient to unnecessary treatment, even if the treatment is relatively safe.
# PR is defined as at least 50% reduction in proteinuria (i.e. UPCR).
# Sensitivity is defined as the probability that a subject showing PR at 48 weeks would have shown a favorable result with regard to the marker at the designated early time point. In the tables below, this is the ratio of the number of subjects with favorable marker results (early drop or normalization) to the total subjects with 48 week PR.
# Specificity is defined as the probability that a subject not showing PR at 48 weeks would have shown an unfavorable result with regard to the marker at the designated early time point. In the tables below, this is the ratio of the number of subjects with unfavorable marker results (no early drop or no normalization) to the total subjects with no 48 week PR.
# Positive predictive value is defined as the probability that a subject showing a favorable result with respect to the marker at an earlier time point would show PR at 48 weeks. In the tables below, this is the ratio of the number of subjects with favorable marker results who have 48 week PR to those with favorable marker results (early reduction or yes column).
# Negative predictive value is defined as the probability that a subject showing an unfavorable result with respect to the marker at an earlier time point would not show PR at 48 weeks. In the tables below, this is the ratio of the number of subjects with unfavorable marker results who have no PR at 48 weeks to the total subjects with unfavorable marker results (no early reduction or no column).
# [1] = 15% reduction in UPCR, Week 2, 23.7 mg BID
# [2] = 15% reduction in UPCR, Week 2, 39.5 mg BID
# [3] = 15% reduction in UPCR, Week 4, 23.7 mg BID
# [4] = 15% reduction in UPCR, Week 6, 39.5 mg BID
# [5] = 15% reduction in UPCR, Week 8, 39.5 mg BID
# [6] = 15% reduction in UPCR, Week 12, 23.7 mg BID
# [7] = 15% reduction in UPCR, Week 12, 39.5 mg BID
# [8] = 15% reduction in UPCR, Week 16, 23.7 mg BID
# [9] = 15% reduction in UPCR, Week 20, 23.7 mg BID
# [10] = 15% reduction in UPCR, Week 20, 39.5 mg BID
# [11] = 15% reduction in UPCR, Week 24, 23.7 mg BID
# [12] = 15% reduction in UPCR, Week 26, 23.7 mg BID
# [13] = 15% reduction in UPCR, Week 26, 39.5 mg BID
# [14] = 15% reduction in UPCR, Week 36, 23.7 mg BID
# [15] = 15% reduction in UPCR, Week 36, 39.5 mg BID
# [16] = 15% reduction in UPCR, Week 48, 23.7 mg BID
# [17] = 20% reduction in UPCR, Week 2, 23.7 mg BID
# [18] = 20% reduction in UPCR, Week 2, 39.5 mg BID
# [19] = 20% reduction in UPCR, Week 4, 23.7 mg BID
# [20] = 20% reduction in UPCR, Week 6, 23.7 mg BID
# [21] = 20% reduction in UPCR, Week 8, 23.7 mg BID
# [22] = 20% reduction in UPCR, Week 8, 39.5 mg BID
# [23] = 20% reduction in UPCR, Week 12, 23.7 mg BID
# [24] = 20% reduction in UPCR, Week 12, 39.5 mg BID
# [25] = 20% reduction in UPCR, Week 16, 23.7 mg BID
# [26] = 20% reduction in UPCR, Week 20, 23.7 mg BID
# [27] = 20% reduction in UPCR, Week 20, 39.5 mg BID
# [28] = 20% reduction in UPCR, Week 24, 23.7 mg BID
# [29] = 20% reduction in UPCR, Week 26, 23.7 mg BID
# [30] = 20% reduction in UPCR, Week 26, 39.5 mg BID
# [31] = 20% reduction in UPCR, Week 36, 23.7 mg BID
# [32] = 20% reduction in UPCR, Week 36, 39.5 mg BID
# [33] = 20% reduction in UPCR, Week 48, 23.7 mg BID
# [34] = 25% reduction in UPCR, Week 2, 23.7 mg BID
# [35] = 25% reduction in UPCR, Week 2, 39.5 mg BID
# [36] = 25% reduction in UPCR, Week 4, 23.7 mg BID
# [37] = 25% reduction in UPCR, Week 6, 23.7 mg BID
# [38] = 25% reduction in UPCR, Week 8, 23.7 mg BID
# [39] = 25% reduction in UPCR, Week 8, 39.5 mg BID
# [40] = 25% reduction in UPCR, Week 12, 23.7 mg BID
# [41] = 25% reduction in UPCR, Week 12, 39.5 mg BID
# [42] = 25% reduction in UPCR, Week 16, 23.7 mg BID
# [43] = 25% reduction in UPCR, Week 20, 23.7 mg BID
# [44] = 25% reduction in UPCR, Week 20, 39.5 mg BID
# [45] = 25% reduction in UPCR, Week 24, 23.7 mg BID
# [46] = 25% reduction in UPCR, Week 24, 39.5 mg BID
compound,measurement,setting,value
C=C/C=C/C[C@@H](C)[C@@H](O)[C@H]1C(=O)N[C@@H](CC)C(=O)N(C)CC(=O)N(C)[C@@H](CC(C)C)C(=O)N[C@@H](C(C)C)C(=O)N(C)[C@@H](CC(C)C)C(=O)N[C@@H](C)C(=O)N[C@H](C)C(=O)N(C)[C@@H](CC(C)C)C(=O)N(C)[C@@H](CC(C)C)C(=O)N(C)[C@@H](C(C)C)C(=O)N1C [voclosporin],Early Reduction No,[1],30
same,No Week 48 Partial Remission Early Drop,[1],10
same,Week 48 Partial Remission No Early Drop,[1],16
same,Early Reduction No,[2],30
same,No Week 48 Partial Remission No Early Drop,[2],9
same,No Week 48 Partial Remission No Early Drop,[3],11
same,Week 48 Partial Remission No Early Drop,[3],9
same,No Week 48 Partial Remission No Early Drop,[4],4
same,Week 48 Partial Remission No Early Drop,[4],10
same,No Week 48 Partial Remission No Early Drop,"15% reduction in UPCR, Week 8, 23.7 mg BID",7
same,Early Reduction No,[5],9
same,No Week 48 Partial Remission No Early Drop,[5],4
same,No Week 48 Partial Remission No Early Drop,[6],4
same,Week 48 Partial Remission No Early Drop,[6],2
same,Early Reduction No,[7],9
same,No Week 48 Partial Remission No Early Drop,[7],4
same,Early Reduction No,[8],8
same,Week 48 Partial Remission No Early Drop,[8],3
same,Early Reduction No,"15% reduction in UPCR, Week 16, 39.5 mg BID",11
same,Early Reduction No,[9],3
same,No Week 48 Partial Remission No Early Drop,[9],3
same,Early Reduction No,[10],9
same,Week 48 Partial Remission No Early Drop,[10],4
same,Early Reduction No,[11],2
same,No Week 48 Partial Remission No Early Drop,[11],2
same,Early Reduction No,"15% reduction in UPCR, Week 24, 39.5 mg BID",10
same,Early Reduction No,[12],3
same,No Week 48 Partial Remission Early Drop,[12],9
same,No Week 48 Partial Remission No Early Drop,[12],3
same,Early Reduction No,[13],4
same,No Week 48 Partial Remission No Early Drop,[13],4
same,Early Reduction No,[14],4
same,No Week 48 Partial Remission Early Drop,[14],10
same,No Week 48 Partial Remission No Early Drop,[14],3
same,Week 48 Partial Remission No Early Drop,[14],1
same,Early Reduction No,[15],7
same,Week 48 Partial Remission No Early Drop,[15],1
same,Early Reduction No,[16],2
same,No Week 48 Partial Remission Early Drop,[16],9
same,No Week 48 Partial Remission No Early Drop,[16],2
same,No Week 48 Partial Remission Early Drop,"15% reduction in UPCR, Week 48, 39.5 mg BID",10
same,Early Reduction No,[17],33
same,No Week 48 Partial Remission Early Drop,[17],8
same,No Week 48 Partial Remission No Early Drop,[17],16
same,Early Reduction No,[18],34
same,No Week 48 Partial Remission No Early Drop,[18],10
same,No Week 48 Partial Remission No Early Drop,[19],11
same,Week 48 Partial Remission No Early Drop,[19],10
same,No Week 48 Partial Remission Early Drop,[20],11
same,No Week 48 Partial Remission No Early Drop,[20],7
same,Week 48 Partial Remission No Early Drop,"20% reduction in UPCR, Week 6, 39.5 mg BID",10
same,No Week 48 Partial Remission Early Drop,[21],11
same,No Week 48 Partial Remission No Early Drop,[21],8
same,Early Reduction No,[22],10
same,No Week 48 Partial Remission No Early Drop,[22],4
same,Early Reduction No,[23],7
same,Week 48 Partial Remission No Early Drop,[23],2
same,Early Reduction No,[24],9
same,No Week 48 Partial Remission No Early Drop,[24],4
same,Early Reduction No,[25],9
same,Week 48 Partial Remission No Early Drop,[25],3
same,Early Reduction No,"20% reduction in UPCR, Week 16, 39.5 mg BID",11
same,Early Reduction No,[26],4
same,No Week 48 Partial Remission No Early Drop,[26],4
same,Early Reduction No,[27],9
same,Week 48 Partial Remission No Early Drop,[27],4
same,Early Reduction No,[28],4
same,No Week 48 Partial Remission Early Drop,[28],11
same,No Week 48 Partial Remission No Early Drop,[28],3
same,Week 48 Partial Remission No Early Drop,[28],1
same,Early Reduction No,"20% reduction in UPCR, Week 24, 39.5 mg BID",11
same,Early Reduction No,[29],3
same,No Week 48 Partial Remission Early Drop,[29],9
same,No Week 48 Partial Remission No Early Drop,[29],3
same,Early Reduction No,[30],4
same,No Week 48 Partial Remission No Early Drop,[30],4
same,Early Reduction No,[31],4
same,No Week 48 Partial Remission Early Drop,[31],10
same,No Week 48 Partial Remission No Early Drop,[31],3
same,Week 48 Partial Remission No Early Drop,[31],1
same,Early Reduction No,[32],8
same,Week 48 Partial Remission No Early Drop,[32],2
same,Early Reduction No,[33],2
same,No Week 48 Partial Remission Early Drop,[33],9
same,No Week 48 Partial Remission No Early Drop,[33],2
same,No Week 48 Partial Remission Early Drop,"20% reduction in UPCR, Week 48, 39.5 mg BID",10
same,No Week 48 Partial Remission Early Drop,[34],8
same,No Week 48 Partial Remission No Early Drop,[34],16
same,No Week 48 Partial Remission No Early Drop,[35],10
same,Week 48 Partial Remission Early Drop,[35],33
same,No Week 48 Partial Remission No Early Drop,[36],11
same,Week 48 Partial Remission No Early Drop,[36],11
same,Week 48 Partial Remission No Early Drop,"25% reduction in UPCR, Week 4, 39.5 mg BID",16
same,No Week 48 Partial Remission Early Drop,[37],10
same,No Week 48 Partial Remission No Early Drop,[37],8
same,Week 48 Partial Remission No Early Drop,[37],8
same,No Week 48 Partial Remission Early Drop,[38],10
same,No Week 48 Partial Remission No Early Drop,[38],9
same,Early Reduction No,[39],10
same,No Week 48 Partial Remission No Early Drop,[39],4
same,Early Reduction No,[40],10
same,Week 48 Partial Remission No Early Drop,[40],4
same,Early Reduction No,[41],9
same,No Week 48 Partial Remission No Early Drop,[41],4
same,Early Reduction No,[42],10
same,No Week 48 Partial Remission Early Drop,[42],11
same,No Week 48 Partial Remission No Early Drop,[42],7
same,Week 48 Partial Remission No Early Drop,[42],3
same,Week 48 Partial Remission No Early Drop,"25% reduction in UPCR, Week 16, 39.5 mg BID",7
same,No Week 48 Partial Remission Early Drop,[43],11
same,Week 48 Partial Remission No Early Drop,[43],1
same,Early Reduction No,[44],9
same,Week 48 Partial Remission No Early Drop,[44],4
same,Early Reduction No,[45],4
same,No Week 48 Partial Remission Early Drop,[45],11
same,No Week 48 Partial Remission No Early Drop,[45],3
same,Week 48 Partial Remission No Early Drop,[45],1
same,No Week 48 Partial Remission No Early Drop,[46],7
same,Week 48 Partial Remission No Early Drop,[46],7
same,Early Reduction No,"25% reduction in UPCR, Week 26, 23.7 mg BID",4
